# Laboratory results from PubChem BioAssay AID330 (DTP/NCI, 2004).
# Several values for one entry are separate records, joined by “and”; a condition that tells them apart may be missing. Equal entries are not always repeated. Toxic doses and inconclusive results are not listed.
# Tested on: P388 leukemia ip, CD2F1 mice, survival T/C
# Experiment: NCI In Vivo Anticancer Drug Screen. Data for tumor model P388 Leukemia (intraperitoneal) in CD2F1 (CDF1) mice
# Conditions: endpoint: median survival time, higher = longer survival
# Procedure, shortened: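 Mice carrying the transplanted tumor received test compound or vehicle. Survival was recorded in each group, and the value is the treated-group measurement divided by that of the vehicle-treated control group.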
# [1] = dose: 25.0 mg/kg/injection, schedule: Q01DX005 (ip), vehicle: saline with Tween-80
# [2] = dose: 25.0 mg/kg/injection, schedule: Q01DX009 (ip), vehicle: saline with Tween-80
# [3] = dose: 240.0 mg/kg/injection, schedule: Q01DX005 (ip), vehicle: saline with Tween-80
# [4] = dose: 50.0 mg/kg/injection, schedule: Q01DX005 (ip), vehicle: Klucel (hydroxypropylcellulose) (HPC)
# [5] = dose: 100.0 mg/kg/injection, schedule: Q01DX005 (ip), vehicle: Klucel (hydroxypropylcellulose) (HPC)
# [6] = dose: 200.0 mg/kg/injection, schedule: Q01DX005 (ip), vehicle: Klucel (hydroxypropylcellulose) (HPC)
# [7] = dose: 12.5 mg/kg/injection, schedule: Q01DX009 (ip), vehicle: water
# [8] = dose: 25.0 mg/kg/injection, schedule: Q01DX009 (ip), vehicle: water
# [9] = dose: 50.0 mg/kg/injection, schedule: Q01DX009 (ip), vehicle: Klucel (hydroxypropylcellulose) (HPC)
# [10] = dose: 100.0 mg/kg/injection, schedule: Q01DX009 (ip), vehicle: Klucel (hydroxypropylcellulose) (HPC)
# [11] = dose: 200.0 mg/kg/injection, schedule: Q01DX009 (ip), vehicle: Klucel (hydroxypropylcellulose) (HPC)
# [12] = dose: 60.0 mg/kg/injection, schedule: Q01DX005 (ip), vehicle: saline with Tween-80
# [13] = dose: 120.0 mg/kg/injection, schedule: Q01DX005 (ip), vehicle: saline with Tween-80
# [14] = dose: 50.0 mg/kg/injection, schedule: Q01DX009 (ip), vehicle: saline with Tween-80
smiles,measurement,setting,value
Cc1ccc(-n2nc(C(O)C(O)C(O)CO)c3nc4cc(C)c(C)cc4nc32)cc1 (configuration not stated),T/C,[1],98 % of control
same,T/C,"dose: 50.0 mg/kg/injection, schedule: Q01DX005 (ip), vehicle: saline with Tween-80",100 % of control and 90 % of control
same,T/C,"dose: 100.0 mg/kg/injection, schedule: Q01DX005 (ip), vehicle: saline with Tween-80",102 % of control
same,T/C,"dose: 200.0 mg/kg/injection, schedule: Q01DX005 (ip), vehicle: saline with Tween-80",100 % of control
C=CCN(CC=C)P(=O)(N1CC1C)N1CC1C (configuration not stated),T/C,"dose: 1.65 mg/kg/injection, schedule: Q01DX009 (ip), vehicle: water",166 % of control
same,T/C,"dose: 2.5 mg/kg/injection, schedule: Q01DX009 (ip), vehicle: water",157 % of control
same,T/C,"dose: 3.75 mg/kg/injection, schedule: Q01DX009 (ip), vehicle: water",118 % of control
same,T/C,"dose: 5.0 mg/kg/injection, schedule: Q01DX009 (ip), vehicle: saline",97 % of control
O=C1c2sccc2C2NC12 (configuration not stated),T/C,"dose: 50.0 mg/kg/injection, schedule: Q01DX005 (ip), vehicle: saline",91 % of control
same,T/C,"dose: 100.0 mg/kg/injection, schedule: Q01DX005 (ip), vehicle: saline",100 % of control
Nc1nc(=S)c2ncn(C3OC(COC(=O)c4ccc(Cl)cc4)C(OC(=O)c4ccc(Cl)cc4)C3OC(=O)c3ccc(Cl)cc3)c2[nH]1 (configuration not stated),T/C,[2],122 % of control
same,T/C,"dose: 25.0 mg/kg/injection, schedule: Q04DX003 (ip), vehicle: saline with Tween-80",95 % of control
same,T/C,"dose: 50.0 mg/kg/injection, schedule: Q04DX003 (ip), vehicle: saline with Tween-80",100 % of control
same,T/C,"dose: 100.0 mg/kg/injection, schedule: Q04DX003 (ip), vehicle: saline with Tween-80",104 % of control
same,T/C,"dose: 132.0 mg/kg/injection, schedule: Q04DX003 (ip), vehicle: saline with Tween-80",116 % of control
same,T/C,"dose: 400.0 mg/kg/injection, schedule: Q04DX003 (ip), vehicle: saline with Tween-80",104 % of control
C[S+](C)CCO,T/C,"dose: 50.0 mg/kg/injection, schedule: Q01DX009 (ip), vehicle: saline",100 % of control
same,T/C,"dose: 100.0 mg/kg/injection, schedule: Q01DX009 (ip), vehicle: saline",102 % of control
same,T/C,"dose: 200.0 mg/kg/injection, schedule: Q01DX009 (ip), vehicle: saline",98 % of control
same,T/C,"dose: 400.0 mg/kg/injection, schedule: Q01DX009 (ip), vehicle: saline",95 % of control
[N-]=[N+]=N/C=C1\CCOC1=O,T/C,"dose: 7.5 mg/kg/injection, schedule: Q01DX005 (ip), vehicle: saline with Tween-80",101 % of control
same,T/C,"dose: 15.0 mg/kg/injection, schedule: Q01DX005 (ip), vehicle: saline with Tween-80",100 % of control
same,T/C,"dose: 30.0 mg/kg/injection, schedule: Q01DX005 (ip), vehicle: saline with Tween-80",99 % of control and 100 % of control
same,T/C,[3],99 % of control
COc1ccc(CC#N)c(C(=O)O)c1,T/C,[4],106 % of control
same,T/C,[5],103 % of control
same,T/C,[6],101 % of control
N#CC(Cl)CNC(=O)Oc1ccccc1 (configuration not stated),T/C,[4],97 % of control
O=NNc1c2c(nc3ccccc13)CCCC2,T/C,"dose: 3.12 mg/kg/injection, schedule: Q01DX009 (ip), vehicle: water",94 % of control
same,T/C,"dose: 6.25 mg/kg/injection, schedule: Q01DX009 (ip), vehicle: water",94 % of control
same,T/C,[7],103 % of control
same,T/C,[8],100 % of control and 111 % of control and 112 % of control
same,T/C,"dose: 50.0 mg/kg/injection, schedule: Q01DX009 (ip), vehicle: water",100 % of control and 110 % of control and 123 % of control
same,T/C,"dose: 100.0 mg/kg/injection, schedule: Q01DX009 (ip), vehicle: water",100 % of control and 106 % of control
same,T/C,"dose: 200.0 mg/kg/injection, schedule: Q01DX009 (ip), vehicle: water",89 % of control
COc1cc(NCCCCCCNC(C)C)c2ncccc2c1,T/C,"dose: 6.25 mg/kg/injection, schedule: Q01DX005 (ip), vehicle: saline with Tween-80",100 % of control
same,T/C,"dose: 12.5 mg/kg/injection, schedule: Q01DX005 (ip), vehicle: saline with Tween-80",102 % of control
same,T/C,[1],95 % of control
Cn1c(=O)[nH]c2nncnc2c1=O,T/C,"dose: 2.0 mg/kg/injection, schedule: Q01DX009 (ip), vehicle: water",101 % of control
same,T/C,"dose: 4.0 mg/kg/injection, schedule: Q01DX009 (ip), vehicle: water",100 % of control
same,T/C,"dose: 8.0 mg/kg/injection, schedule: Q01DX009 (ip), vehicle: water",104 % of control
same,T/C,[7],99 % of control
same,T/C,"dose: 16.0 mg/kg/injection, schedule: Q01DX009 (ip), vehicle: water",101 % of control
same,T/C,[8],117 % of control
same,T/C,"dose: 32.0 mg/kg/injection, schedule: Q01DX009 (ip), vehicle: water",104 % of control
same,T/C,"dose: 64.0 mg/kg/injection, schedule: Q01DX009 (ip), vehicle: water",123 % of control
same,T/C,"dose: 375.0 micrograms/kg/injection, schedule: Q01DX009 (ip), vehicle: saline",97 % of control
same,T/C,"dose: 750.0 micrograms/kg/injection, schedule: Q01DX009 (ip), vehicle: saline",100 % of control
same,T/C,"dose: 1500.0 micrograms/kg/injection, schedule: Q01DX009 (ip), vehicle: saline",91 % of control
same,T/C,"dose: 3000.0 micrograms/kg/injection, schedule: Q01DX009 (ip), vehicle: saline",100 % of control
CCC1(c2ccccc2)CCCC(C(N)=O)C1=O (configuration not stated),T/C,"dose: 100.0 mg/kg/injection, schedule: Q01DX001 (ip), vehicle: Klucel (hydroxypropylcellulose) (HPC)",100 % of control
same,T/C,"dose: 200.0 mg/kg/injection, schedule: Q01DX001 (ip), vehicle: Klucel (hydroxypropylcellulose) (HPC)",99 % of control
same,T/C,"dose: 400.0 mg/kg/injection, schedule: Q01DX001 (ip), vehicle: Klucel (hydroxypropylcellulose) (HPC)",101 % of control
COC(=O)C1CC(c2ccccc2)N(c2ccccc2)O1 (configuration not stated),T/C,[9],100 % of control
same,T/C,[10],103 % of control
same,T/C,[11],100 % of control
Cc1cc(C)c(S(=O)(=O)Sc2nnnn2-c2ccccc2)c(C)c1,T/C,[9],100 % of control
same,T/C,[10],105 % of control
same,T/C,[11],95 % of control
CC1=CC(=C2C(=O)c3ccccc3C2=O)C=C(C)O1,T/C,[4],101 % of control
same,T/C,"dose: 60.0 mg/kg/injection, schedule: Q01DX005 (ip), vehicle: Klucel (hydroxypropylcellulose) (HPC)",95 % of control
same,T/C,[5],89 % of control
same,T/C,"dose: 120.0 mg/kg/injection, schedule: Q01DX005 (ip), vehicle: Klucel (hydroxypropylcellulose) (HPC)",90 % of control
same,T/C,[6],88 % of control
same,T/C,"dose: 240.0 mg/kg/injection, schedule: Q01DX005 (ip), vehicle: Klucel (hydroxypropylcellulose) (HPC)",87 % of control
CC/S(=N\S(=O)(=O)c1ccc(C)cc1)c1cccc[n+]1[O-] (configuration not stated),T/C,[12],100 % of control
same,T/C,[13],110 % of control
same,T/C,[3],100 % of control
O=C(CCCC(=O)Nc1cccc([N+](=O)[O-])c1)CC(=O)c1ccc([N+](=O)[O-])cc1,T/C,[12],100 % of control
same,T/C,[13],102 % of control
same,T/C,[3],103 % of control
C#CCSc1nc2ccccc2s1,T/C,[9],98 % of control
same,T/C,[10],109 % of control
O=C(CCCN1CCC(C(=O)c2ccc(F)cc2)CC1)c1ccc(F)cc1,T/C,"dose: 1.56 mg/kg/injection, schedule: Q01DX009 (ip), vehicle: saline",92 % of control
same,T/C,"dose: 3.13 mg/kg/injection, schedule: Q01DX009 (ip), vehicle: saline",93 % of control
same,T/C,"dose: 6.25 mg/kg/injection, schedule: Q01DX009 (ip), vehicle: saline with Tween-80",100 % of control
same,T/C,"dose: 6.25 mg/kg/injection, schedule: Q01DX009 (ip), vehicle: saline",104 % of control
same,T/C,"dose: 12.5 mg/kg/injection, schedule: Q01DX009 (ip), vehicle: saline with Tween-80",100 % of control
same,T/C,[2],110 % of control
same,T/C,[14],118 % of control
O=C1N(CO)C2C(N1CO)N(CO)C(=O)N2CO (configuration not stated),T/C,"dose: 100.0 mg/kg/injection, schedule: Q04DX003 (ip), vehicle: saline",109 % of control
same,T/C,"dose: 200.0 mg/kg/injection, schedule: Q04DX003 (ip), vehicle: saline",118 % of control
same,T/C,"dose: 400.0 mg/kg/injection, schedule: Q04DX003 (ip), vehicle: saline",118 % of control
O=C(NC(=S)Nc1ccsc1)c1ccccc1,T/C,[14],90 % of control
same,T/C,"dose: 100.0 mg/kg/injection, schedule: Q01DX009 (ip), vehicle: saline with Tween-80",88 % of control
N#CC(=Nc1cccc(F)c1)C1=C(O)c2ccccc2C1=O,T/C,[12],100 % of control
same,T/C,[13],97 % of control
